In article PMC12040169 (PLOS Biology, 2025) one finds viability data, which are given here for 80 molecules.

The data set can be described thus: in vitro. As to conditions: human, hela cells, % viability.

As usually defined, the viability is a read-out of living cells in per cent, often relative to untreated cells. As to `O=[N+]([O-])c1ccc(CCNCC(O)COc2cccc3c2CCCC3)cc1` (centres unmarked) [CBK003083], the viability at 28.5 h, 10 µM came out at 88.6%.
Take `CC(C)(C)OC(=O)N1CCN(S(=O)(=O)c2ccc(Cl)c([N+](=O)[O-])c2)CC1` [CBK003165]: the viability at 28.5 h, 10 µM was 100%.
As to `COC(=O)C1=COC(C)C2CN3CCC4(NC(=O)c5c4ccc(OC)c5OC)C3CC12` (centres unmarked) [CBK003303], the viability at 28.5 h, 10 µM worked out at 107%.
As for `CN(C(=O)c1ccc(Cl)c(Cl)c1)[C@H]1CCC[C@H]1N1CCCC1` [CBK003411C], the viability at 28.5 h, 10 µM (bulk resorufin, single well) was determined as 90%.
For `O=C(N[C@H]1CCCC[C@H]1N1CCCC1)N[C@H]1CCCC[C@H]1N1CCCC1` [CBK003419], the viability at 28.5 h, 10 µM stood at 115%.
Same read-out and setting: with `O=C(O)c1cccc(Cn2ccc3c(F)cccc32)c1` [CBK003453] the figure was 95.9%; with `Oc1cc(C(F)(F)F)nc(NCc2ccc3ccccc3c2)n1` [CBK003459], 92.2%; with `COC(=O)C1(Cc2ccccc2)CN(C(=O)OC(C)(C)C)CCC1=O` (centres unmarked) [CBK003486], 93.2%.
Consider `COc1ccc([N+](=O)[O-])cc1N1CCN(C(=O)OC(C)(C)C)CC1` [CBK003504], for which the viability at 28.5 h, 10 µM was 92.3%.
For the molecule `CC(C)(C)OC(=O)N1CCN(c2cc(Cl)nc(N)n2)CC1` [CBK003505], the viability at 28.5 h, 10 µM turned out to be 91.8%.
For the molecule `CN1CCC(C#N)(c2ccccc2F)CC1` [CBK003511], the viability at 28.5 h, 10 µM (bulk resorufin, single well) worked out at 99.3%.
On to `COc1ccc(-c2nc(O)cc(C(F)(F)F)n2)cc1` [CBK003515], for which the viability at 28.5 h, 10 µM stood at 86.3%.
With `Cn1c2c(c3ccccc31)C(=O)NCC2` [CBK003517], the viability at 28.5 h, 10 µM was found to be 89%.
In the case of `COC(=O)c1ccccc1NC(C)=O` [CBK003522], under “bulk resorufin, single well”, the viability at 28.5 h, 10 µM was 107%.
As to `Cc1cc2nc(NC(=N)N)[nH]c2cc1C` [CBK003532], the viability at 28.5 h, 10 µM was 93.5%.
In the case of `COc1ccc([C@@]23CCC(N)C[C@@H]2N(C)CC3)cc1OC` (some centres unmarked) [CBK003576], the viability at 28.5 h, 10 µM turned out to be 114%.
As to `OC(COc1cccc2c1CCCC2)CN1CCC(O)(c2ccc(Cl)c(C(F)(F)F)c2)CC1` (centres unmarked) [CBK003581], the viability at 28.5 h, 10 µM is 102%.
Regarding `O=C(c1ccc(F)cc1)C1CCN(CC(O)COc2cccc3c2CCCC3)CC1` (centres unmarked) [CBK003583], the viability at 28.5 h, 10 µM was determined as 101%.
Still for that read-out and setting: the same measure for `OC(COc1cccc2c1CCCC2)CN1CCC(O)(c2ccc(Br)cc2)CC1` (centres unmarked) [CBK003584]: 72%; for `Cc1ccc(N(CCc2cc(C(F)(F)F)cc(C(F)(F)F)c2)C(=O)CN)cc1NC(=O)CN(C)C` [CBK003630T]: 84.5%.
For the molecule `COc1cccc2ccn(S(=O)(=O)c3ccsc3C(=O)O)c12` [CBK003636], the viability at 28.5 h, 10 µM came out at 96.1%.
Still for that read-out and setting: the same measure for `CCC1CN(Cc2ccccc2)CCN1c1cncc(Cl)n1` (centres unmarked) [CBK003645]: 112%; for `Oc1cc(C(F)(F)F)nc(CCc2ccc(Cl)cc2)n1` [CBK003678]: 107%.
Take `COc1ccc(CCc2nc(C(F)(F)F)cc(=O)[nH]2)cc1` [CBK003679]: the viability at 28.5 h, 10 µM worked out at 87.3%.
The same measure, in the same setting: the same measure for `Cc1ccc(S(N)(=O)=O)cc1NC(=O)c1ccc(Br)o1` [CBK003693]: 91.6%; for `O=C(NCc1ccc(Cl)cc1)C1CCCN1c1nc(O)cc(C(F)(F)F)n1` (centres unmarked) [CBK003706]: 115%; for `CCNC(=S)N[C@H]1CC[C@@]2(Cc3ccccc3Cl)CCN(C)[C@H]2C1` [CBK003708]: 92%.
Regarding `Oc1cc(C(F)(F)F)nc(NCc2cccc3ccccc23)n1` [CBK003716], the viability at 28.5 h, 10 µM worked out at 92.7%.
On to `CCOC(=O)c1ccccc1NC(=O)n1ccc2c(N3CCNCC3)cccc21` [CBK003731C], for which the viability at 28.5 h, 10 µM stood at 50.8%.
Consider `CC(C)(C)c1ccc(NC(=O)n2ccc3c(N4CCNCC4)cccc32)cc1` [CBK003736C], for which the viability at 28.5 h, 10 µM is 27%.
Same read-out and setting: the same measure for `CCCCc1ccc(S(=O)(=O)n2ccc3c(N4CCNCC4)cccc32)cc1` [CBK003744C]: 78.7%; for `O=C(Nc1ccc(OCc2ccoc2)cc1C(=O)O)c1ccc(Cl)cc1Cl` [CBK003768D]: 87.5%; for `CCCCNC(=S)NC1CC[C@@]2(c3ccc(Br)cc3)CCN(C)[C@H]2C1` (some centres unmarked) [CBK003781]: 111%.
With `CCOC(=O)c1sc(NS(=O)(=O)c2ccc(-c3ccccc3)cc2)nc1C` [CBK003784], the viability at 28.5 h, 10 µM came to 106%.
On the same count and under the same terms, the same measure for `O=C(Cc1ccc(NS(=O)(=O)c2cc(Cl)c(Cl)s2)nc1)N1CCOCC1` [CBK003790]: 96.5%; for `OC(COc1cccc2c1CCCC2)CN1CCC(Cc2ccccc2)CC1` (centres unmarked) [CBK003829]: 94.7%; for `COc1ccc(-c2cc(=O)[nH]c(N3CCN(C)CC3)n2)cc1` [CBK003849]: 90.4%.
Same read-out and setting: the same measure for `CCCCc1cc(=O)[nH]c(N2CCOCC2)n1` [CBK003851]: 102%; for `CC1CN(C(=O)OC(C)(C)C)CCN1c1nc2ccccc2nc1O` (centres unmarked) [CBK003877C]: 116%; for `Nc1nc2c(O)cccc2s1` [CBK003892B]: 85.6%.
The same measure, in the same setting: the same measure for `CN1CCN(c2nccnc2OCC2COc3ccccc3O2)CC1` (centres unmarked) [CBK003899C]: 96.7%.
With `NCc1ccc(OC2CCNCC2)cc1` [CBK003920T], the viability at 28.5 h, 10 µM came to 88.7%.
For `CC(C)(C)OC(=O)N1CCC(CNS(C)(=O)=O)CC1` [CBK003925], the viability at 28.5 h, 10 µM turned out to be 78%.
The same measure, in the same setting: with `O=S(=O)(Nc1cccc(C(F)(F)F)c1)c1ccc(N2CCCNCC2)c2ccccc12` [CBK003929C] the figure was 86.4%; with `O=S(=O)(Nc1ccccc1OC(F)(F)F)c1ccc(N2CCNCC2)c2ccccc12` [CBK003933C], 92.8%; with `O=S(=O)(Nc1cccc(OC(F)(F)F)c1)c1ccc(N2CCNCC2)c2ccccc12` [CBK003935C], 111%.
On to `FC(F)(F)c1ccc(N2CCNCC2)nc1SCc1ccccc1Cl` [CBK003964A], for which the viability at 28.5 h, 10 µM was determined as 98.2%.
Consider `FC(F)(F)c1ccc(N2CCNCC2)nc1OCc1ccc2c(c1)OCCO2` [CBK003994A], for which the viability at 28.5 h, 10 µM came to 113%.
On the same count and under the same terms, the same measure for `O=C(Nc1cc(N2CCNCC2)ncn1)c1ccccc1` [CBK004215T]: 94.3%; for `COc1ccc(CCC(=O)Nc2cc(N3CCNCC3)ncn2)cc1` [CBK004231T]: 92.1%.
On the same count and under the same terms, the same measure for `O=C(Nc1ccccn1)C1CCCN1c1nc(O)cc(C(F)(F)F)n1` (centres unmarked) [CBK004254]: 91%; for `CCNC(=S)N[C@H]1CC[C@@]2(Cc3ccc(OC)cc3)CCN(C)[C@H]2C1` [CBK004257]: 101%.
`CCCCNC(=S)N[C@H]1CC[C@@]2(Cc3ccc(OC)cc3)CCN(C)[C@H]2C1` [CBK004258]: the viability at 28.5 h, 10 µM was 108%.
Still for that read-out and setting: the same measure for `COc1ccc(C[C@@]23CC[C@@H](NC(=S)NCc4ccccc4)C[C@@H]2N(C)CC3)cc1` [CBK004262]: 88.4%; for `O=C(NCc1cccs1)C1CCCN1c1nc(O)cc(C(F)(F)F)n1` (centres unmarked) [CBK004299]: 91.3%.
Still for that read-out and setting: the same measure for `O=C(Nc1nccc(N2CCNCC2)n1)C1CCCC1` [CBK004302T]: 113%.
As for `O=C(Nc1ccccc1F)C1CCCN1c1nc(O)cc(C(F)(F)F)n1` (centres unmarked) [CBK004307], the viability at 28.5 h, 10 µM was found to be 105%.
Still for that read-out and setting: with `CCN(CC)CCOC(=O)c1ccc(N)cc1` [CBK004330C] the figure was 84.5%; with `COC(=O)c1sccc1NS(=O)(=O)c1ccc2ccccc2c1` [CBK004500], 103%; with `Brc1ccccc1OCCc1ccccc1` [CBK004519], 95.4%.
On to `COc1ccc(C2OCCN2C(C)=O)cc1` (centres unmarked) [CBK004536], for which the viability at 28.5 h, 10 µM is 80.8%.
Same read-out and setting: with `Cc1c(Cl)cccc1S(=O)(=O)Nc1ccsc1C(=O)O` [CBK004549] the figure was 97.7%; with `O=C(O)c1sccc1NS(=O)(=O)Cc1ccccc1` [CBK004561], 92.3%.
For the molecule `O=C(Nc1ccc(F)cc1)c1sccc1NS(=O)(=O)Cc1ccccc1` [CBK004574], the viability at 28.5 h, 10 µM was 106%.
Consider `O=C(Nc1ccc(F)cc1)c1sccc1NS(=O)(=O)c1cc(F)c(Br)cc1F` [CBK004586], for which the viability at 28.5 h, 10 µM was determined as 94.4%.
Turning to `COc1ccc(Br)cc1S(=O)(=O)Nc1ccsc1C(=O)Nc1ccc(F)cc1` [CBK004593], the viability at 28.5 h, 10 µM was 97.7%.
Still for that read-out and setting: with `CCN(CC)C(=O)c1sccc1NS(=O)(=O)c1ccc(OC)c(OC)c1` [CBK004596] the figure was 94.3%; with `CCN(CC)C(=O)c1sccc1NS(=O)(=O)c1cc(Br)c(Cl)s1` [CBK004599], 98.3%.
Regarding `Cc1noc(C)c1S(=O)(=O)Nc1ccsc1C(=O)Nc1ccc(F)cc1` [CBK004604], the viability at 28.5 h, 10 µM was 86.3%.
Still for that read-out and setting: the same measure for `COc1ccc(S(=O)(=O)Nc2ccsc2C(=O)N2CCN(C)CC2)cc1OC` [CBK004627]: 95.3%.
Same read-out and setting: with `CN1CCN(C(=O)c2sccc2NS(=O)(=O)c2ccc3ccccc3c2)CC1` [CBK004631] the figure was 91.7%; with `CCNC(=S)N[C@@H]1CC[C@@]2(c3ccc([N+](=O)[O-])cc3)CCN(CCc3ccccc3)[C@H]2C1` [CBK004677], 90.5%; with `OCc1cccc2c3c(n(Cc4ccccc4)c12)CCCC3` [CBK004693], 91.3%.
`CCOC(=O)CNS(=O)(=O)c1cccc(Cl)c1C` [CBK004702]: the viability at 28.5 h, 10 µM is 103%.
As for `CCOC(=O)c1cnc(NS(=O)(=O)c2cccc(Cl)c2C)nc1C` [CBK004707], the viability at 28.5 h, 10 µM was 105%.
With `O=C(Nc1ccc(N2CCNCC2)nc1)C1CCC1` [CBK004743T], the viability at 28.5 h, 10 µM was determined as 86.2%.
On the same count and under the same terms, the same measure for `COCCC(=O)Nc1ccc(N2CCNCC2)nc1` [CBK004749T]: 92.2%.
With `CC(C(=O)Nc1cccc(N2CCNCC2)c1)c1ccccc1` (centres unmarked) [CBK004770T], the viability at 28.5 h, 10 µM is 95.6%.
The same measure, in the same setting: with `CN1CCN(c2nc(Nc3ccc(Cl)cc3)nc(Oc3ccccc3)n2)CC1` [CBK004778] the figure was 107%.
Still for that read-out and setting: the same measure for `Cc1ccc2[nH]c3c(c2c1)CCNCC3` [CBK004811]: 98.3%.
